From ChEMBL document CHEMBL4382231, “Chemical preparation, biological evaluation and 3D-QSAR of ethoxysulfuron derivatives as novel antifungal agents targeting acetohydroxyacid synthase” (Eur J Med Chem, 2019) come the findings set out here.

In brackets after ≈: the same amount, converted by molar mass. Activity calls are given as the source filed them. The calls are words filed in the database; no cut-off is given here. Some results are limits rather than exact numbers.

In data set [1] the test system is Candida albicans. Description: Antifungal activity against fluconazole-resistant Candida albicans isolate g5 cultured in YNB media after 48 hrs by broth microdilution method. Type of data set: functional.
Data set [2] has as its system Candida albicans. Description: Antifungal activity against Candida albicans SC5314 cultured in YNB media after 48 hrs by broth microdilution method. Type of data set: functional.
Data set [3] deals with Candida albicans. Put plainly: Antifungal activity against Candida albicans SC5314 cultured in YNB media after 72 hrs by broth microdilution method. Type of data set: functional.
The test system of data set [4] is Saccharomyces cerevisiae. Put plainly: Antifungal activity against Saccharomyces cerevisiae SC XH1549 cultured in YNB media after 24 hrs by broth microdilution method. The data set is classed as functional. The conditions noted are these: SC XH1549, 24 h.
The subject of data set [5] is Saccharomyces cerevisiae. Put plainly: Antifungal activity against Saccharomyces cerevisiae SC XH1549 cultured in YNB media after 72 hrs by broth microdilution method. The data set is classed as functional.
Data set [6] relates to Candida albicans. Put plainly: Antifungal activity against fluconazole-resistant Candida albicans isolate 17 cultured in YNB media after 72 hrs by broth microdilution method. Type of data set: functional.
The test system of data set [7] is Candida albicans. Put plainly: Antifungal activity against fluconazole-resistant Candida albicans isolate g5 cultured in YNB media after 72 hrs by broth microdilution method. The data set is classed as functional.
Data set [8] relates to Candida parapsilosis. Put plainly: Antifungal activity against Candida parapsilosis ATCC 22019 cultured in YNB media after 72 hrs by broth microdilution method. The data set is classed as functional.
Data set [9] has as its system Candida albicans. Description: Antifungal activity against Candida albicans SC5314 infected in Caenorhabditis elegans assessed as mortality at 20 nM after 24 hrs by propidium iodide staining based fluorescence microscopic analysis (reference value: 17%). Type of data set: functional.
Data set [10] has as its system Saccharomyces cerevisiae. Description: Antifungal activity against Saccharomyces cerevisiae SC XH1549 cultured in YNB media after 48 hrs by broth microdilution method. The data set is classed as functional.
For data set [11], the system named is Candida albicans. Put plainly: Antifungal activity against fluconazole-resistant Candida albicans isolate 17 cultured in YNB media after 24 hrs by broth microdilution method. The data set is classed as functional.
The test system of data set [12] is Candida parapsilosis. Put plainly: Antifungal activity against Candida parapsilosis ATCC 22019 cultured in YNB media after 24 hrs by broth microdilution method. Type of data set: functional. As to conditions: Lodderomyces parapsilosis, ATCC 22019, 24 h.
Data set [13] deals with Candida albicans. Description: Ratio of MIC for Candida albicans SC5314 cultured in RPMI 1640 media to MIC for Candida albicans SC5314 cultured in YNB media. Type of data set: functional.
The subject of data set [14] is Candida parapsilosis. Description: Antifungal activity against Candida parapsilosis ATCC 22019 cultured in YNB media after 48 hrs by broth microdilution method. The data set is classed as functional.
In data set [15] the test system is Candida albicans. Put plainly: Antifungal activity against Candida albicans SC5314 cultured in YNB media after 24 hrs by broth microdilution method. The data set is classed as functional. As to conditions: SC5314, 24 h.
Data set [16] in a line: Inhibition of Candida albicans AHAS catalytic subunit using pyruvate as substrate measured after 30 mins by colorimetric method.
Data set [17] has as its system Candida albicans. Description: Antifungal activity against fluconazole-resistant Candida albicans isolate 17 cultured in YNB media after 48 hrs by broth microdilution method. Type of data set: functional.
In data set [18] the test system is Candida albicans. Put plainly: Antifungal activity against fluconazole-resistant Candida albicans isolate g5 cultured in YNB media after 24 hrs by broth microdilution method. Type of data set: functional.
In data set [19] the test system is Candida albicans. Description: Antifungal activity against Candida albicans SC5314 cultured in RPMI 1640 media after 24 hrs by broth microdilution method. The conditions noted are these: SC5314, 24 h. The data set is classed as functional.
The nature of data set [20]: Toxicity in po dosed rat. The conditions noted are these: in vivo. Type of data set: organism-based.
Data set [21] can be described thus: Toxicity in topically applied rabbit. Also noted: species or system Oryctolagus cuniculus. As to conditions: in vivo, topical or ocular.
Where [22] appears, read: Lodderomyces parapsilosis, ATCC 22019, 72 h.
[23] abbreviates: Lodderomyces parapsilosis, ATCC 22019, 48 h.

On to `CCOC(=O)c1ccccc1OS(=O)(=O)[N-]C(=O)Nc1nc(OC)cc(OC)n1.[Na+]`, for which the minimal inhibitory concentration (MIC) was 2.5 µg/mL with Candida albicans [1] (isolate g5, 48 h); 2.5 µg/mL in the data set on Candida albicans [2] (SC5314, 48 h); 2.5 µg/mL in the data set with Candida albicans [3] (SC5314, 72 h); 2.5 µg/mL in the data set with Saccharomyces cerevisiae [4]; 5 µg/mL with Saccharomyces cerevisiae [5] (SC XH1549, 72 h); 5 µg/mL with Candida albicans [6] (isolate 17, 72 h). Also, the minimum inhibitory concentration (MIC) with Candida albicans [7] (isolate g5, 72 h) amounted to 2.5 µg/mL; in the data set with Candida parapsilosis [8] (setting [22]), 2.5 µg/mL; in the data set with Saccharomyces cerevisiae [10] (SC XH1549, 48 h), 5 µg/mL; with Candida albicans [11] (isolate 17, 24 h), 2.5 µg/mL; against Candida parapsilosis [12] it was 1.25 µg/mL; against Candida parapsilosis [14] (setting [23]), 2.5 µg/mL. Further, the MIC in the data set on Candida albicans [15] came out at 1.25 µg/mL; with Candida albicans [17] (isolate 17, 48 h), 5 µg/mL; with Candida albicans [18] (isolate g5, 24 h) it was 2.5 µg/mL; in the data set on Candida albicans [19], 25 µg/mL. Further, the Activity in the data set on Candida albicans [9] stood at 7%. Further, in the data set on Candida albicans [13], the “Ratio IC50” value is 20. In addition, the affinity in [16], expressed as Ki, was 6.7 nM. Besides, the negative logarithm of the Ki (pKi) in data set [16] came out at 8.17.

For `CCOC(=O)c1ccccc1S(=O)(=O)NC(=O)Nc1nc(Cl)cc(OC)n1` [CHLORIMURON ETHYL], the figures for the LD50 in [20] and in data set [21] were > 4000 mg/kg and > 2000 mg/kg, respectively. The Activity in the data set on Candida albicans [9] was found to be 8%.

As for `C[C@@H]1[C@H](O)[C@@H](C)/C=C/C=C/C=C/C=C/C=C/C=C/C=C/[C@H](O[C@@H]2O[C@H](C)[C@@H](O)[C@H](N)[C@@H]2O)C[C@@H]2O[C@](O)(C[C@@H](O)C[C@@H](O)[C@H](O)CC[C@@H](O)C[C@@H](O)CC(=O)O[C@H]1C)C[C@H](O)[C@H]2C(=O)O` [AMPHOTERICIN B], the MIC in the data set on Saccharomyces cerevisiae [4] came out at 2.5 µg/mL (≈ 2.71 µM); against Saccharomyces cerevisiae [5] (SC XH1549, 72 h), 2.5 µg/mL (≈ 2.71 µM); in the data set on Candida parapsilosis [8] (setting [22]) it was 2.5 µg/mL (≈ 2.71 µM); against Saccharomyces cerevisiae [10] (SC XH1549, 48 h), 2.5 µg/mL (≈ 2.71 µM); against Candida parapsilosis [12], 2.5 µg/mL (≈ 2.71 µM); with Candida parapsilosis [14] (setting [23]), 2.5 µg/mL (≈ 2.71 µM). The MIC in the data set with Candida albicans [19] is 1.56 µg/mL (≈ 1.69 µM).

As to `COc1cc(OC)nc(NC(=O)[N-]S(=O)(=O)Oc2ccccc2OCCI)n1.[Na+]`, the minimum inhibitory concentration (MIC) against Candida albicans [1] (isolate g5, 48 h) is 10 µg/mL; in the data set with Candida albicans [2] (SC5314, 48 h), 5 µg/mL; against Candida albicans [3] (SC5314, 72 h), 10 µg/mL; in the data set on Saccharomyces cerevisiae [4], 80 µg/mL; with Saccharomyces cerevisiae [5] (SC XH1549, 72 h), > 80 µg/mL; against Candida albicans [6] (isolate 17, 72 h) it was 20 µg/mL. For the same compound, the minimum inhibitory concentration (MIC) in the data set with Candida albicans [7] (isolate g5, 72 h) is 20 µg/mL; with Candida parapsilosis [8] (setting [22]) it was 20 µg/mL; against Saccharomyces cerevisiae [10] (SC XH1549, 48 h), > 80 µg/mL; with Candida albicans [11] (isolate 17, 24 h) it was 5 µg/mL; against Candida parapsilosis [12], 5 µg/mL; in the data set with Candida parapsilosis [14] (setting [23]) it was 20 µg/mL. Moreover, the MIC came to 2.5 µg/mL with Candida albicans [15]; 10 µg/mL in the data set on Candida albicans [17] (isolate 17, 48 h); 5 µg/mL against Candida albicans [18] (isolate g5, 24 h); 50 µg/mL against Candida albicans [19]. Also, the “Ratio IC50” value with Candida albicans [13] was 20. In addition, the Ki in data set [16] was found to be 125 nM. For the same compound, the negative logarithm of the Ki (pKi) in [16] was found to be 6.9.

For the compound `CCOc1ccccc1OS(=O)(=O)[N-]C(=O)Nc1nc(OC)cc(OC)n1.[Na+]`, the minimum inhibitory concentration (MIC) turned out to be 1.25 µg/mL against Candida albicans [1] (isolate g5, 48 h); 1.25 µg/mL in the data set with Candida albicans [2] (SC5314, 48 h); 1.25 µg/mL in the data set with Candida albicans [3] (SC5314, 72 h); 5 µg/mL with Saccharomyces cerevisiae [4]; 5 µg/mL in the data set with Saccharomyces cerevisiae [5] (SC XH1549, 72 h); 2.5 µg/mL in the data set with Candida albicans [6] (isolate 17, 72 h). The MIC in the data set on Candida albicans [7] (isolate g5, 72 h) stood at 2.5 µg/mL; in the data set with Candida parapsilosis [8] (setting [22]), 2.5 µg/mL; with Saccharomyces cerevisiae [10] (SC XH1549, 48 h), 5 µg/mL; against Candida albicans [11] (isolate 17, 24 h), 1.25 µg/mL; in the data set on Candida parapsilosis [12] it was 1.25 µg/mL; in the data set with Candida parapsilosis [14] (setting [23]), 2.5 µg/mL. The minimum inhibitory concentration (MIC) is 0.625 µg/mL against Candida albicans [15]; 2.5 µg/mL in the data set on Candida albicans [17] (isolate 17, 48 h); 1.25 µg/mL in the data set with Candida albicans [18] (isolate g5, 24 h). The same compound displayed a Ki in data set [16] of 22.1 nM.

Consider `CCOC(=O)c1ccccc1OS(=O)(=O)NC(=O)Nc1nc(OC)cc(OC)n1`, for which the MIC against Candida albicans [1] (isolate g5, 48 h) turned out to be 2.5 µg/mL (≈ 5.86 µM); in the data set with Candida albicans [2] (SC5314, 48 h), 2.5 µg/mL (≈ 5.86 µM); with Candida albicans [3] (SC5314, 72 h) it was 2.5 µg/mL (≈ 5.86 µM); in the data set on Saccharomyces cerevisiae [4], 2.5 µg/mL (≈ 5.86 µM); in the data set with Saccharomyces cerevisiae [5] (SC XH1549, 72 h), 5 µg/mL (≈ 11.7 µM); against Candida albicans [6] (isolate 17, 72 h) it was 5 µg/mL (≈ 11.7 µM). Besides, the minimum inhibitory concentration (MIC) with Candida albicans [7] (isolate g5, 72 h) was found to be 2.5 µg/mL (≈ 5.86 µM); with Candida parapsilosis [8] (setting [22]) it was 2.5 µg/mL (≈ 5.86 µM); with Saccharomyces cerevisiae [10] (SC XH1549, 48 h) it was 5 µg/mL (≈ 11.7 µM); against Candida albicans [11] (isolate 17, 24 h), 2.5 µg/mL (≈ 5.86 µM); in the data set with Candida parapsilosis [12], 1.25 µg/mL (≈ 2.93 µM); against Candida parapsilosis [14] (setting [23]), 2.5 µg/mL (≈ 5.86 µM). Besides, the MIC with Candida albicans [15] is 1.25 µg/mL (≈ 2.93 µM); with Candida albicans [17] (isolate 17, 48 h) it was 5 µg/mL (≈ 11.7 µM); with Candida albicans [18] (isolate g5, 24 h) it was 2.5 µg/mL (≈ 5.86 µM). In [16], this compound showed an inhibitory constant (Ki) of 6.3 nM.

Regarding `OC(Cn1cncn1)(Cn1cncn1)c1ccc(F)cc1F` [FLUCONAZOLE], the MIC entry in the data set with Candida albicans [1], in the data set on Candida albicans [2], in the data set on Candida albicans [3], with Saccharomyces cerevisiae [5], in the data set with Candida albicans [6] and with Candida albicans [7] was “inactive” throughout. Moreover, the MIC result in the data set with Candida parapsilosis [8], in the data set with Saccharomyces cerevisiae [10], in the data set with Candida albicans [11], in the data set on Candida parapsilosis [14], with Candida albicans [17] and in the data set on Candida albicans [18] was “inactive” each time. Moreover, the minimal inhibitory concentration (MIC) against Saccharomyces cerevisiae [4], against Candida parapsilosis [12], against Candida albicans [15] and in the data set with Candida albicans [19] was 0.25 µg/mL (≈ 0.816 µM) in each case. In addition, the Activity in the data set on Candida albicans [9] is listed as 5%.
